Assay results taken from patent publication US9346761B2, “Arginine methyltransferase inhibitors and uses thereof” (Epizyme, Inc., priority 2013, dated 2016).
Where a name gives a salt, the structure may show the parent alone. Read-outs that look alike come from different tables or passages of the source.

How the values were obtained:
[1] = system: mono-methyl arginine in RKO cells; assay: RKO methylation assay, In Cell Western for mono-methyl arginine and DNA content; type: cell-based; settings: Homo sapiens
Full-length human PRMT8 = target: T1, Full-length human PRMT8 (Homo sapiens, UniProt Q9NR22); assay: PRMT8 biochemical assay (3H-SAM Flashplate, peptide substrate)
T1 construct: Full-length human PRMT8 (NM_019854.4) isoform 1 transcript clone; made in house
Text: General Materials. S-adenosylmethionine (SAM), S-adenosylhomocysteine (SAH), bicine, Tween20, dimethylsulfoxide (DMSO), bovine skin gelatin (BSG), isopropyl-β-D-thiogalactopyranoside (IPTG), and Tris(2-carboxyethyl)phosphine hydrochloride solution (TCEP) were purchased from Sigma-Aldrich at the highest level of purity possible. ^3H-SAM was purchase from American Radiolabeled Chemicals with a specific activity of 80 Ci/mmol. 384-well streptavidin Flashplates were purchased from PerkinElmer.
Substrates. Peptide representative of human histone H4 residues 31-45 was synthesized with an N-terminal linker-affinity tag motif and a C-terminal amide cap by 21st Century Biochemicals.
Protein Expression. E. coli (BL21(DE3) Gold, Stratagene) made competent by the CaCl2 method were transformed with the PRMT8 construct and ampicillin selection. Protein over-expression was accomplished by growing the PRMT8 expressing E. coli clone and inducing expression with 0.3 mM IPTG at 16° C. The culture was grown for 12 hours, harvested by centrifugation, and stored at −80° C. for purification.
Protein Purification. […] GST-tagged PRMT8 was eluted with 50 mM Tris, 2 mM glutathione, pH 7.8. Pooled fractions were cleaved by thrombin (10 U) and dialysed in buffer A. GST was removed by reloading the cleaved protein sample onto glutathione sepharose column and PRMT8 was collected in the flow-through fractions. PRMT8 was purified further by ceramic hydroxyapatite chromatography. The column was washed with 50 mM phosphate buffer, 100 mM NaCl, 5% glycerol, 5 mM β-mercaptoethanol, pH 7.8 and PRMT8 was eluted by 100 mM phosphate in the same buffer. Protein was concentrated and buffer was exchanged to 50 mM Tris, 300 mM NaCl, 10% glycerol, 5 mM β-mercaptoethanol, pH 7.8 by ultrafiltration.
General Procedure for PRMT8 Enzyme Assays on Peptide Substrates. The assays were all performed in a buffer consisting of 20 mM Bicine (pH=7.6), 1 mM TCEP, 0.005% BSG, and 0.002% Tween 20, prepared on the day of use. […] DMSO (1 ul) was added to Columns 11, 12, 23, 24, rows A-H for the maximum signal control and 1 ul of SAH, a known product and inhibitor of PRMT8, was added to columns 11, 12, 23, 24, rows I-P for the minimum signal control. A cocktail (40 ul) containing the PRMT8 enzyme was added by Multidrop Combi (Thermo-Fisher). The compounds were allowed to incubate with PRMT8 for 30 min at room temperature, then a cocktail (10 ul) containing ^3H-SAM and peptide was added to initiate the reaction (final volume=51 ul). […] The assays were stopped by the addition of non-radiolabeled SAM (10 ul) to a final concentration of 400 uM, which dilutes the ^3H-SAM to a level where its incorporation into the peptide substrate is no longer detectable. 50 ul of the reaction in the 384-well polypropylene plate was then transferred to a 384-well Flashplate and the biotinylated peptides were allowed to bind to the streptavidin surface for at least 1 hour before being washed once with 0.1% Tween20 in a Biotek ELx405 plate washer. The plates were then read in a PerkinElmer TopCount plate reader to measure the quantity of ^3H-labeled peptide bound to the Flashplate surface, measured as disintegrations per minute (dpm) or alternatively, referred to as counts per minute (cpm).
Where dpm=disintegrations per minute, cmpd=signal in assay well, and min and max are the respective minimum and maximum signal controls.
Where top and bottom are the normally allowed to float, but may be fixed at 100 or 0 respectively in a 3-parameter fit. The Hill Coefficient normally allowed to float but may also be fixed at 1 in a 3-parameter fit. Y is the % inhibition and X is the compound concentration.

[2] = In Cell Western, RKO cells, 72 hours, percent activation of mono-methyl arginine signal, read-out: EC30

T1 sequence (Q9NR22 whole entry, canonical isoform): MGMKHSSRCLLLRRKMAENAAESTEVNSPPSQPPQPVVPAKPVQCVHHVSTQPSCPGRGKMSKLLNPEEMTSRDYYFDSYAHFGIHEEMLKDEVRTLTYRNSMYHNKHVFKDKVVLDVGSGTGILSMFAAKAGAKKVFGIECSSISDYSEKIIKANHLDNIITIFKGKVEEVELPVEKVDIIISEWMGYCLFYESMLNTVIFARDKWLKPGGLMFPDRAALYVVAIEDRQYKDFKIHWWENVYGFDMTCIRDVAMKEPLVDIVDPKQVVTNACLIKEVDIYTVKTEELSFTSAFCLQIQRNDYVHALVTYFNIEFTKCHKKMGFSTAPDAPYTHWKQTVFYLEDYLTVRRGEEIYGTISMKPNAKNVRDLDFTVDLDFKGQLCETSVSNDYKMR

Row | Compound | EC30 [1, 2] | IC50 (Full-length human PRMT8) | EC30 ([1]; RKO, 72 h)
1 | CNCCN(C)Cc1cn(C2CCC2)nc1-c1ccc(OC(C)C)cc1 [Compound 254, N1-((1-cyclobutyl-3-(4-isopropoxyphenyl)-1H-pyrazol-4-yl)methyl)-N1,N2-dimethylethane-1,2-diamine hydrochloride] | < 3000 nM |  | 
2 | CN(CCN(C)C1CC1)Cc1c[nH]nc1-c1ccc(C#N)cc1 [Compound 184] | < 3000 nM | 3010 to 10000 nM | 
3 | C=CC(=O)Nc1cccc(-c2[nH]ncc2CN(C)CCNC)c1 [Compound 258] | > 12000 nM |  | 
4 | CNCCN(C)Cc1cn(CC(=O)OC)nc1-c1ccc(OC(C)C)cc1 [Compound 248] | > 12000 nM |  | 
5 | CNCCN(C)Cc1cn(C)nc1-c1ccc(Oc2ccccc2)cc1 [Compound 207] | < 3000 nM | 101 to 1000 nM | 
6 | CCNC(=O)c1cccc(-c2n[nH]cc2CN(C)CCNC)c1 [Compound 43] | > 12000 nM | 1010 to 3000 nM | 
7 | CC(C)Oc1cccc(-c2n[nH]cc2CN(C)CCN)c1 [Compound 187] | 3010 to 12000 nM | 1010 to 3000 nM | 
8 | CNCCN(C)Cc1cn(CCOC)nc1-c1ccc(OC(C)C)cc1 [Compound 253, N1-((3-(4-isopropoxyphenyl)-1-(2-methoxyethyl)-1H-pyrazol-4-yl)methyl)-N1,N2-dimethylethane-1,2-diamine hydrochloride] | 3010 to 12000 nM |  | 
9 | CN(CCN)Cc1c[nH]nc1-c1ccc(OCCO)cc1 [Compound 194] | > 12000 nM | 101 to 1000 nM | 
10 | CC(C)Oc1cc(-c2n[nH]cc2CN(C)CCN)ccc1F [Compound 188] | > 12000 nM | 1010 to 3000 nM | 
11 | CNCCN(C)Cc1cn[nH]c1-c1ccc(C#N)cc1 [Compound 17] |  | < 100 nM | > 12000 nM
12 | CNCCN(C)Cc1cn[nH]c1-c1cc(F)cc(F)c1 [Compound 18] | > 12000 nM | 101 to 1000 nM | 
13 | CNCCN(C)Cc1n[nH]cc1-c1ccc(OC(C)C)c(F)c1 [Compound 210] | < 3000 nM | 101 to 1000 nM | 
14 | CC(C)Oc1ccc(-c2c[nH]nc2CN(C)CCN)cc1Cl [Compound 211] | < 3000 nM | 101 to 1000 nM | 
15 | CNCCN(C)Cc1cn(C(C)C)nc1-c1ccc(F)cc1 [Compound 15] | > 12000 nM | > 10000 nM | 
16 | CNCCN(C)Cc1cn(C2CC2)nc1-c1ccc(F)cc1 [Compound 13] | > 12000 nM | > 10000 nM | 
17 | CNCCN(C)Cc1c[nH]nc1-c1cccc(C#N)c1 [Compound 22] | > 12000 nM | 1010 to 3000 nM | 
18 | CNCCN(C)Cc1c[nH]nc1-c1ccc(Cl)c(F)c1 [Compound 182] | < 3000 nM | 101 to 1000 nM | 
19 | CNCCN(C)Cc1c[nH]nc1-c1ccc(CO)cc1 [Compound 28] | 3010 to 12000 nM | < 100 nM | 
20 | CNCCN(C)Cc1cn(C2CCCC2)nc1-c1ccc(OC(C)C)cc1 [Compound 214] | > 12000 nM |  | 
21 | CNCCN(C)Cc1cn(CC(=O)O)nc1-c1ccc(OC(C)C)cc1 [Compound 250] |  | 1010 to 3000 nM | > 12000 nM
22 | CN(CCN)Cc1c[nH]nc1-c1ccc(Oc2ccccc2)c(C#N)c1 [Compound 202] | < 3000 nM | 101 to 1000 nM | 
23 | CNCCN(C)Cc1c[nH]nc1-c1ccc(O)cc1 [Compound 27] | > 12000 nM | 101 to 1000 nM | 
24 | CNCCN(C)Cc1cn(CCCC(O)CO)nc1-c1ccc(F)cc1 (centres unmarked) [Compound 30] | > 12000 nM | > 10000 nM | 
25 | CN(CCN)Cc1c[nH]nc1-c1ccc(Oc2ccc(F)cc2)cc1 [Compound 225, N^1-((3-(4-(4-fluorophenoxy)phenyl)-1H-pyrazol-4-yl)methyl)-N^1-methylethane-1,2-diamine] | < 3000 nM | < 100 nM | 
26 | CNCCN(C)Cc1c[nH]nc1-c1ccccc1C(F)(F)F [Compound 38] | > 12000 nM | 3010 to 10000 nM | 
27 | CNCCN(C)Cc1n[nH]cc1-c1ccc(Oc2ccccc2)cc1 [Compound 204] | < 3000 nM | < 100 nM | 
28 | CNCCN(C)Cc1cnn(C(C)C)c1-c1ccc(F)cc1 [Compound 16] |  | > 10000 nM | > 12000 nM

Row | Compound | EC30 [1, 2] | IC50 (Full-length human PRMT8) | EC30 ([1]; RKO, 72 h)
29 | CNCCN(C)Cc1c[nH]nc1-c1ccc(Oc2ccccc2)cc1 [Compound 37] | < 3000 nM | < 100 nM | 
30 | CNCCN(C)Cc1cnn(C2CCCC2)c1-c1ccc(OC(C)C)cc1 [Compound 255] |  |  | < 3000 nM
31 | CNCCN(C)Cc1c[nH]nc1-c1cccc(OC)c1 [Compound 24] | > 12000 nM | 101 to 1000 nM | 
32 | CCn1ncc(CN(C)CCNC)c1-c1ccc(OC(C)C)cc1 [Compound 252] |  |  | < 3000 nM
33 | CN(CCNC1CC1)Cc1c[nH]nc1-c1ccc(C#N)cc1 [Compound 183] | > 12000 nM | 3010 to 10000 nM | 
34 | CNCCN(C)Cc1cn(Cc2cccnc2)nc1-c1ccc(OC(C)C)cc1 [Compound 246] |  |  | < 3000 nM
35 | CNCCN(C)Cc1c[nH]nc1-c1ccc(Oc2ccccc2)c(C#N)c1 [Compound 221] | < 3000 nM | 101 to 1000 nM | 
36 | CNCCN(C)Cc1cn(C)nc1-c1ccc(OC(C)C)c(Cl)c1 [Compound 206] |  | 101 to 1000 nM | < 3000 nM
37 | CNCCN(C)Cc1c[nH]nc1-c1ccc(C(F)(F)F)cc1 [Compound 174] | < 3000 nM | 101 to 1000 nM | 
38 | CNCCN(C)Cc1cn(C)nc1-c1ccc(OC(C)C)cc1 [Compound 243, N1-((3-(4-isopropoxyphenyl)-1-methyl-1H-pyrazol-4-yl)methyl)-N1,N2-dimethylethane-1,2-diamine] | < 3000 nM |  | 
39 | CCNC(=O)c1cccc(-c2n[nH]cc2CN(C)CCN)c1 [Compound 197] | > 12000 nM | 1010 to 3000 nM | 
40 | CNCCN(C)Cc1cn(Cc2ccccc2)nc1-c1ccc(OC(C)C)cc1 [Compound 217] | > 12000 nM |  | 
41 | CN(CCN)Cc1c[nH]nc1-c1ccc(Oc2ccccc2)c(F)c1 [Compound 224, N^1-((3-(3-fluoro-4-phenoxyphenyl)-1H-pyrazol-4-yl)methyl)-N^1-methylethane-1,2-diamine] |  | 101 to 1000 nM | < 3000 nM
42 | CC(C)CC(=O)N1CCN(c2ccc(-c3n[nH]cc3CN(C)CCN)cc2)CC1 [Compound 180] | > 12000 nM | 3010 to 10000 nM | 
43 | CNCCN(C)Cc1c[nH]nc1-c1ccc(OC)cc1 [Compound 25] | > 12000 nM | 101 to 1000 nM | 
44 | CNC(=O)c1cc(-c2n[nH]cc2CN(C)CCN)ccc1Oc1ccccc1 [Compound 227] | > 12000 nM | 101 to 1000 nM | 
45 | CNCCN(C)Cc1c[nH]nc1-c1cccc([N+](=O)[O-])c1 [Compound 21] | > 12000 nM | 101 to 1000 nM | 
46 | CNCCN(C)Cc1n[nH]cc1-c1ccc(OC(C)C)c(Cl)c1 [Compound 212] | < 3000 nM | < 100 nM | 
47 | CNCCN(C)Cc1cn(CC(N)=O)nc1-c1ccc(OC(C)C)cc1 [Compound 251] | > 12000 nM |  | 
48 | CC(C)CN1C(=O)COc2cc(-c3n[nH]cc3CN(C)CCN)ccc21 [Compound 193] | 3010 to 12000 nM | 101 to 1000 nM | 
49 | CNCCN(C)Cc1cn(C2CCOC2)nc1-c1ccc(OC(C)C)cc1 (centres unmarked) [Compound 215] | > 12000 nM |  | 
50 | CNCCN(C)Cc1cn(Cc2ccccn2)nc1-c1ccc(OC(C)C)cc1 [Compound 247] | 3010 to 12000 nM |  | 
51 | C=CCn1ncc(CN(C)CCNC)c1-c1ccc(OC(C)C)cc1 [Compound 219] | > 12000 nM |  | 
52 | CNCCN(C)Cc1cnn(C2CCOC2)c1-c1ccc(OC(C)C)cc1 (centres unmarked) [Compound 216] | > 12000 nM |  | 
53 | CCn1cc(CN(C)CCNC)c(-c2ccc(OC(C)C)cc2)n1 [Compound 213] | > 12000 nM |  | 
54 | C=C(C)C(=O)Nc1cccc(-c2[nH]ncc2CN(C)CCNC)c1 [Compound 257] | > 12000 nM |  | 
55 | C=CCn1cc(CN(C)CCNC)c(-c2ccc(OC(C)C)cc2)n1 [Compound 218] | > 12000 nM |  | 
